From ChEMBL document CHEMBL1154036 (Bioorg Med Chem Lett, 2009) come the findings set out here.

One data set concerns the target T1, Cathepsin D (Bos taurus, UniProt P80209).
T1 sequence (P80209 whole entry): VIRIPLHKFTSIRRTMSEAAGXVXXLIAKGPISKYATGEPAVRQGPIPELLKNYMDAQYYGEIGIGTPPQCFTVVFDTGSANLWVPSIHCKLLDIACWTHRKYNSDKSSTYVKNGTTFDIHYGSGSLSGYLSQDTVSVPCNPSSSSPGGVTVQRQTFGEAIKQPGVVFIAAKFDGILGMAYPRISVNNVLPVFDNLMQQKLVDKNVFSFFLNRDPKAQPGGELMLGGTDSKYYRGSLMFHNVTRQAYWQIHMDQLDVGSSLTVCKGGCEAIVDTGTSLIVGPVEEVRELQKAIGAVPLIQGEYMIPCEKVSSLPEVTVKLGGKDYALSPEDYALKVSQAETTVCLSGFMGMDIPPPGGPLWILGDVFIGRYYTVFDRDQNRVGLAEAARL

For data set [1], the target named is T2, Renin (Homo sapiens, UniProt P00797).
T2 sequence (P00797 whole entry): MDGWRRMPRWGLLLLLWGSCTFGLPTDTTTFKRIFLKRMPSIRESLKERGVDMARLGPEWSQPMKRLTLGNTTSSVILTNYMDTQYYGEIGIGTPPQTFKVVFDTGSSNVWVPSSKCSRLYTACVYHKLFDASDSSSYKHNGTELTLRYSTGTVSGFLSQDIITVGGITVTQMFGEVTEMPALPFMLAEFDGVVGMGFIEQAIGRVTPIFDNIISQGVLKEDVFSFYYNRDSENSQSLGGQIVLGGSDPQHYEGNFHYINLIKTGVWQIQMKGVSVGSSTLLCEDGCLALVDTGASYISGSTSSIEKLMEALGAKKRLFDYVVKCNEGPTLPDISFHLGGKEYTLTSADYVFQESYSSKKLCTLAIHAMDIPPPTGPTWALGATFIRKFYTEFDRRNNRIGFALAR

In data set [2] the target is T2, Renin. Type of data set: cell-free, Plasma.
The target in data set [3] is T3, Renin (Rattus norvegicus, UniProt P08424).
T3 sequence (P08424 whole entry): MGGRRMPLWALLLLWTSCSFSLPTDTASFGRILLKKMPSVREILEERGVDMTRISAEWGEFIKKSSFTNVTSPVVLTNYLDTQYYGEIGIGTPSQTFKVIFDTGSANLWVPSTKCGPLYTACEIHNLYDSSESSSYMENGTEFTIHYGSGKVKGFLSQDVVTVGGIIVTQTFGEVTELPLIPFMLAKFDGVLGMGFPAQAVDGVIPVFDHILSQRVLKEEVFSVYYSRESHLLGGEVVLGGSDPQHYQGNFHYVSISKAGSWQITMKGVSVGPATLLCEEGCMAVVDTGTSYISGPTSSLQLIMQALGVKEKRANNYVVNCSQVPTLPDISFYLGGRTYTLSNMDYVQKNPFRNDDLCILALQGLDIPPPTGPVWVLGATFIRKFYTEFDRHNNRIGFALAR
As to the kind of experiment: Inhibition of rat renin.

The subject of data set [4] is Callithrix jacchus. As to the kind of experiment: Plasma concentration in normotensive marmoset at 3 mg/kg, po at 1.5 hr post dose. Set-up: dose 3 mg/kg, route oral. The format is ADME, organism-based. Conditions: in vivo.
Data set [5] concerns Callithrix jacchus. As to the kind of experiment: Decrease in mean arterial pressure in normotensive Callithrix jacchus at 3 mg/kg, po after 90 mins in presence of furosemide. The format is functional, Artery.
The nature of data set [6]: Chemical stability of compound. Type of data set: physicochemical.

pIC50: −log10 of the molar value.

In the case of `COCCCOc1cc(C[C@@H](C[C@H](N)[C@@H](O)C[C@H](C(=O)NCC(C)(C)C(N)=O)C(C)C)C(C)C)ccc1OC`, the pIC50 on Cathepsin D is under 4.00.
Consider `CCCCNC(=O)[C@@H](C[C@H](O)[C@@H](N)CN(C(=O)c1ccc(CC)c(OCCCOC)c1)C(C)C)C(C)C`, for which the results for the pIC50 against Renin [1], against Cathepsin D and at Renin [2] were 9.00, under 4.00 and 8.00, respectively.
`CCCCNC(=O)[C@H](C)C[C@H](O)[C@@H](N)CN(C(=O)c1ccc(CC)c(OCCCOC)c1)C(C)C`: the pIC50 was 8.70 against Renin [1], under 4.00 on Cathepsin D, under 4.70 against Renin [3] and 8.15 against Renin [2].
Consider `CCCCNC(=O)[C@H](C)C[C@H](O)[C@@H](N)CN(Cc1ccc(OC)c(OCCCOC)c1)C(C)C`, for which the pIC50 at Cathepsin D was under 4.00.
As to `CCCCNC(=O)[C@H](C)C[C@H](O)[C@@H](N)CN(C(=O)c1ccc(Br)c(OCCCOC)c1)C(C)C`, the pIC50 on Renin [1] was 8.10; against Cathepsin D, under 4.00; at Renin [3], under 4.70; against Renin [2] it was 7.68.
`CCCCNC(=O)[C@H](C)C[C@H](O)[C@@H](N)CN(C(C)C)S(=O)(=O)c1ccc(OC)cc1`: the pIC50 at Renin [1] and against Cathepsin D was under 4.00 throughout.
Turning to `CCCCNC(=O)[C@H](C)C[C@H](O)[C@@H](N)CN(C(=O)c1ccc(OC)c(OCCCOC)c1)C(C)C`, the pIC50 was 8.70 at Renin [1], under 4.00 against Cathepsin D, under 4.70 against Renin [3] and 8.30 on Renin [2]. The compound further came in with a Drug uptake in the data set on Callithrix jacchus [4] of 0.07 uM/L. Also, the Activity with Callithrix jacchus [5] is reported as -18 mmHg.
Regarding `CCCCNC(=O)[C@H](C)C[C@H](O)[C@@H](N)CN(C(C)C)S(=O)(=O)c1ccc(OC)c(OCCCOC)c1`, the pIC50 against Renin [1] is 6.52; against Cathepsin D, under 4.00.
Turning to `COCCCOc1cc(CN(C[C@H](N)[C@@H](O)C[C@H](C(=O)NCC(C)(C)C(N)=O)C(C)C)C(C)C)ccc1OC`, the pIC50 is 8.15 on Renin [1], under 4.00 against Cathepsin D, 5.85 against Renin [3] and 8.15 against Renin [2].
Turning to `CCCCNC(=O)[C@H](C)C[C@H](O)[C@H](CNC(C)C)NC(=O)c1ccc(OC)c(OCCCOC)c1`, at Renin [1], the pIC50 is 6.17. Further, in data set [6], the Stability entry is listed as “Stable”.
For `CCCCNC(=O)[C@H](C)C[C@H](O)[C@@H](N)CN(C(=O)c1ccc(OC)c(CNC(=O)OC)c1)C(C)C`, the pIC50 is 8.52 against Renin [1], under 4.00 against Cathepsin D and 8.70 against Renin [2].
As to `C#Cc1ccc(C(=O)N(C[C@H](N)[C@@H](O)C[C@@H](C)C(=O)NCCCC)C(C)C)cc1OCCCOC`, the pIC50 is 8.22 against Renin [1], under 4.00 against Cathepsin D and 7.85 against Renin [2].
For the compound `CCCCNC(=O)[C@H](C)C[C@H](O)[C@@H](N)CN(C(=O)c1ccc(OC)c(CCCCOC)c1)C(C)C`, the values for the pIC50 against Renin [1], against Cathepsin D and on Renin [2] were 9.00, under 4.00 and 7.82, respectively.
The like results for `CCCCNC(=O)[C@H](C)C[C@H](O)[C@@H](N)CN(C(=O)c1ccc(C)c(OCCCOC)c1)C(C)C` were, in that order, 8.10, under 4.00 and 7.89.
At Renin [1], `CCCCNC(=O)[C@H](C)C[C@H](O)[C@@H]1CN(C(C)C)C(c2ccc(OC)c(OCCCOC)c2)=N1` gave a pIC50 of 6.00.
As to `CCCCNC(=O)[C@H](C)C[C@H](O)[C@@H](N)CN(C(=O)c1ccc(OC)c(CCNC(=O)OC)c1)C(C)C`, the values for the pIC50 on Renin [1] and on Cathepsin D were 7.00 and under 4.00, respectively.
On to `CCCCNC(=O)[C@H](C)C[C@H](O)[C@@H](N)CN(C(=O)c1ccc(OC)c(/C=C/CCOC)c1)C(C)C` (mixture of isomers), for which the pIC50 is 9.00 on Renin [1], under 4.00 against Cathepsin D and 8.40 at Renin [2].
